Experimental data published in US9469650B2, “Melampomagnolide B derivatives” (BOARD OF TRUSTEES OF THE UNIVERSITY OF ARKANSAS, priority 2013, dated 2016).

Experiments:
[1] = system: UACC-257; test: panel of 60 human tumor cell lines, growth inhibition (Melanoma); details: UACC-257
[2] = system: SF-268; test: panel of 60 human tumor cell lines, growth inhibition (CNS Cancer); details: SF-268
[3] = system: SF-295; test: as above; details: SF-295
[4] = system: PC-3; test: panel of 60 human tumor cell lines, growth inhibition (Prostate Cancer); details: PC-3
[5] = system: HOP-92; test: panel of 60 human tumor cell lines, growth inhibition (Non-Small Cell Lung Cancer); details: HOP-92
[6] = system: HCC-2998; test: panel of 60 human tumor cell lines, growth inhibition (Colon Cancer); details: HCC-2998
[7] = system: A549/ATCC; test: panel of 60 human tumor cell lines, growth inhibition (Non-Small Cell Lung Cancer); details: A549/ATCC
[8] = system: SW-620; test: panel of 60 human tumor cell lines, growth inhibition (Colon Cancer); details: SW-620
[9] = system: U251; test: panel of 60 human tumor cell lines, growth inhibition (CNS Cancer); details: U251
[10] = system: CAKI-1; test: panel of 60 human tumor cell lines, growth inhibition (Renal Cancer); details: CAKI-1
[11] = system: A498; test: as above; details: A498
[12] = system: IGROV1; test: panel of 60 human tumor cell lines, growth inhibition (Ovarian Cancer); details: IGROVI
[13] = system: HOP-62; test: panel of 60 human tumor cell lines, growth inhibition (Non-Small Cell Lung Cancer); details: HOP-62
[14] = system: MDA-MB-231/ATCC; test: panel of 60 human tumor cell lines, growth inhibition (Breast Cancer); details: MDA-MB-231/ATCC
[15] = system: OVCAR-5; test: panel of 60 human tumor cell lines, growth inhibition (Ovarian Cancer); details: OVCAR-5
[16] = system: SNB-19; test: panel of 60 human tumor cell lines, growth inhibition (CNS Cancer); details: SNB-19
[17] = system: NCI-H522; test: panel of 60 human tumor cell lines, growth inhibition (Non-Small Cell Lung Cancer); details: NCI-H522
[18] = system: SN12C; test: panel of 60 human tumor cell lines, growth inhibition (Renal Cancer)
[19] = system: LOX IMVI; test: panel of 60 human tumor cell lines, growth inhibition (Melanoma)

For `C=C1C(=O)O[C@H]2[C@H]1CC/C(COC(=O)NC)=C\CC[C@@]1(C)O[C@@H]21` [JVM 2-57], the “Percent Growth” value ([1]; Log10 Concentration −4.0) was −91%, the “Percent Growth” value ([1]; Log10 Concentration −5.0) was 24% and the “Percent Growth” value ([1]; Log10 Concentration −6.0) was 73%. For the same compound, the “Percent Growth” value ([1]; Log10 Concentration −7.0) was 94%, the “Percent Growth” value ([1]; Log10 Concentration −8.0) was 94% and the GI50 ([1]; NCI five dose) was 2.96 µM. The TGI ([1]; NCI five dose) was 1.62E−5, the “Percent Growth” value ([2]; Log10 Concentration −4.0) was −73% and the “Percent Growth” value ([2]; Log10 Concentration −5.0) was 66%. For the same compound, the “Percent Growth” value ([2]; Log10 Concentration −6.0) was 92%, the “Percent Growth” value ([2]; Log10 Concentration −7.0) was 90% and the “Percent Growth” value ([2]; Log10 Concentration −8.0) was 92%. For the same compound, the GI50 ([2]; NCI five dose) was 13 µM, the TGI ([2]; NCI five dose) was 2.98E−5 and the “Percent Growth” value ([3]; Log10 Concentration −4.0) was −30%. The “Percent Growth” value ([3]; Log10 Concentration −5.0) was 76%, the “Percent Growth” value ([3]; Log10 Concentration −6.0) was 93% and the “Percent Growth” value ([3]; Log10 Concentration −7.0) was 90%. The “Percent Growth” value ([3]; Log10 Concentration −8.0) was 97%, the GI50 ([3]; NCI five dose) was 17.5 µM and the TGI ([3]; NCI five dose) was 5.21E−5. For the same compound, the “Percent Growth” value ([4]; Log10 Concentration −4.0) was −70%, the “Percent Growth” value ([4]; Log10 Concentration −5.0) was 67% and the “Percent Growth” value ([4]; Log10 Concentration −6.0) was 96%. The “Percent Growth” value ([4]; Log10 Concentration −7.0) was 97%, the “Percent Growth” value ([4]; Log10 Concentration −8.0) was 98% and the GI50 ([4]; NCI five dose) was 13.3 µM. The TGI ([4]; NCI five dose) was 3.08E−5, the “Percent Growth” value ([5]; Log10 Concentration −4.0) was −95% and the “Percent Growth” value ([5]; Log10 Concentration −5.0) was −9%. For the same compound, the “Percent Growth” value ([5]; Log10 Concentration −6.0) was 83%, the “Percent Growth” value ([5]; Log10 Concentration −7.0) was 91% and the “Percent Growth” value ([5]; Log10 Concentration −8.0) was 92%. For the same compound, the GI50 ([5]; NCI five dose) was 2.26 µM, the TGI ([5]; NCI five dose) was 7.90E−6 and the “Percent Growth” value ([6]; Log10 Concentration −4.0) was −81%. For the same compound, the “Percent Growth” value ([6]; Log10 Concentration −5.0) was 65%, the “Percent Growth” value ([6]; Log10 Concentration −6.0) was 107% and the “Percent Growth” value ([6]; Log10 Concentration −7.0) was 91%. The “Percent Growth” value ([6]; Log10 Concentration −8.0) was 94%, the GI50 ([6]; NCI five dose) was 12.7 µM and the TGI ([6]; NCI five dose) was 2.80E−5. The “Percent Growth” value ([7]; Log10 Concentration −4.0) was −88%, the “Percent Growth” value ([7]; Log10 Concentration −5.0) was 71% and the “Percent Growth” value ([7]; Log10 Concentration −6.0) was 95%. For the same compound, the “Percent Growth” value ([7]; Log10 Concentration −7.0) was 99%, the “Percent Growth” value ([7]; Log10 Concentration −8.0) was 100% and the GI50 ([7]; NCI five dose) was 13.5 µM. The TGI ([7]; NCI five dose) was 2.80E−5, the “Percent Growth” value ([8]; Log10 Concentration −4.0) was −80% and the “Percent Growth” value ([8]; Log10 Concentration −5.0) was 6%. For the same compound, the “Percent Growth” value ([8]; Log10 Concentration −6.0) was 65%, the “Percent Growth” value ([8]; Log10 Concentration −7.0) was 99% and the “Percent Growth” value ([8]; Log10 Concentration −8.0) was 98%. For the same compound, the GI50 ([8]; NCI five dose) was 1.8 µM, the TGI ([8]; NCI five dose) was 1.16E−5 and the “Percent Growth” value ([9]; Log10 Concentration −4.0) was −100%. The “Percent Growth” value ([9]; Log10 Concentration −5.0) was 81%, the “Percent Growth” value ([9]; Log10 Concentration −6.0) was 92% and the “Percent Growth” value ([9]; Log10 Concentration −7.0) was 97%. The “Percent Growth” value ([9]; Log10 Concentration −8.0) was 99%, the GI50 ([9]; NCI five dose) was 14.9 µM and the TGI ([9]; NCI five dose) was 2.81E−5. The “Percent Growth” value ([10]; Log10 Concentration −4.0) was −97%, the “Percent Growth” value ([10]; Log10 Concentration −5.0) was 10% and the “Percent Growth” value ([10]; Log10 Concentration −6.0) was 82%. For the same compound, the “Percent Growth” value ([10]; Log10 Concentration −7.0) was 89%, the “Percent Growth” value ([10]; Log10 Concentration −8.0) was 96% and the GI50 ([10]; NCI five dose) was 2.78 µM. For the same compound, the TGI ([10]; NCI five dose) was 1.25E−5, the “Percent Growth” value ([11]; Log10 Concentration −4.0) was −90% and the “Percent Growth” value ([11]; Log10 Concentration −5.0) was 32%. The “Percent Growth” value ([11]; Log10 Concentration −6.0) was 66%, the “Percent Growth” value ([11]; Log10 Concentration −7.0) was 70% and the “Percent Growth” value ([11]; Log10 Concentration −8.0) was 71%. The GI50 ([11]; NCI five dose) was 2.97 µM, the TGI ([11]; NCI five dose) was 1.84E−5 and the “Percent Growth” value ([12]; Log10 Concentration −4.0) was −57%. The “Percent Growth” value ([12]; Log10 Concentration −5.0) was 8%, the “Percent Growth” value ([12]; Log10 Concentration −6.0) was 102% and the “Percent Growth” value ([12]; Log10 Concentration −7.0) was 101%. The “Percent Growth” value ([12]; Log10 Concentration −8.0) was 100%, the GI50 ([12]; NCI five dose) was 3.58 µM and the TGI ([12]; NCI five dose) was 1.32E−5. For the same compound, the “Percent Growth” value ([13]; Log10 Concentration −4.0) was −86%, the “Percent Growth” value ([13]; Log10 Concentration −5.0) was 72% and the “Percent Growth” value ([13]; Log10 Concentration −6.0) was 92%. The “Percent Growth” value ([13]; Log10 Concentration −7.0) was 86%, the “Percent Growth” value ([13]; Log10 Concentration −8.0) was 95% and the GI50 ([13]; NCI five dose) was 13.9 µM. The TGI ([13]; NCI five dose) was 2.87E−5, the “Percent Growth” value ([14]; Log10 Concentration −4.0) was −77% and the “Percent Growth” value ([14]; Log10 Concentration −5.0) was 31%. For the same compound, the “Percent Growth” value ([14]; Log10 Concentration −6.0) was 86%, the “Percent Growth” value ([14]; Log10 Concentration −7.0) was 89% and the “Percent Growth” value ([14]; Log10 Concentration −8.0) was 106%. The GI50 ([14]; NCI five dose) was 4.48 µM, the TGI ([14]; NCI five dose) was 1.93E−5 and the “Percent Growth” value ([15]; Log10 Concentration −4.0) was −90%. For the same compound, the “Percent Growth” value ([15]; Log10 Concentration −5.0) was 24%, the “Percent Growth” value ([15]; Log10 Concentration −6.0) was 86% and the “Percent Growth” value ([15]; Log10 Concentration −7.0) was 84%. The “Percent Growth” value ([15]; Log10 Concentration −8.0) was 93%, the GI50 ([15]; NCI five dose) was 3.82 µM and the TGI ([15]; NCI five dose) was 1.62E−5. For the same compound, the “Percent Growth” value ([16]; Log10 Concentration −4.0) was −38%, the “Percent Growth” value ([16]; Log10 Concentration −5.0) was 74% and the “Percent Growth” value ([16]; Log10 Concentration −6.0) was 92%. The “Percent Growth” value ([16]; Log10 Concentration −7.0) was 95%, the “Percent Growth” value ([16]; Log10 Concentration −8.0) was 94% and the GI50 ([16]; NCI five dose) was 16.4 µM. The TGI ([16]; NCI five dose) was 4.59E−5, the “Percent Growth” value ([17]; Log10 Concentration −4.0) was −74% and the “Percent Growth” value ([17]; Log10 Concentration −5.0) was −73%. For the same compound, the “Percent Growth” value ([17]; Log10 Concentration −6.0) was 68%, the “Percent Growth” value ([17]; Log10 Concentration −7.0) was 87% and the “Percent Growth” value ([17]; Log10 Concentration −8.0) was 89%. The GI50 ([17]; NCI five dose) was 1.33 µM, the TGI ([17]; NCI five dose) was 3.02E−6 and the “Percent Growth” value ([18]; Log10 Concentration −4.0) was −59%. The “Percent Growth” value ([18]; Log10 Concentration −5.0) was 28%, the “Percent Growth” value ([18]; Log10 Concentration −6.0) was 93% and the “Percent Growth” value ([18]; Log10 Concentration −7.0) was 97%. For the same compound, the “Percent Growth” value ([18]; Log10 Concentration −8.0) was 96%, the GI50 ([18]; NCI five dose) was 4.57 µM and the TGI ([18]; NCI five dose) was 2.09E−5. For the same compound, the “Percent Growth” value ([19]; Log10 Concentration −4.0) was −91%, the “Percent Growth” value ([19]; Log10 Concentration −5.0) was 21% and the “Percent Growth” value ([19]; Log10 Concentration −6.0) was 92%. The “Percent Growth” value ([19]; Log10 Concentration −7.0) was 95%, the “Percent Growth” value ([19]; Log10 Concentration −8.0) was 96% and the GI50 ([19]; NCI five dose) was 3.92 µM. For the same compound, the TGI ([19]; NCI five dose) was 1.55E−5.
